Measurements taken from US7732449B2, “Inhibitors of cathepsin S” (IRM LLC, priority 2003, dated 2010).
Like-named read-outs stand apart in the source and are kept apart here.

Assays:
Type in all cases: biochemical
Cathepsin K = target: T1, Cathepsin K (Homo sapiens, UniProt P43235); experiment: Cathepsin K inhibition, fluorogenic peptide substrate kinetic assay (selectivity); details: ratio of cathepsin K inhibition constant to cathepsin S inhibition constant
T1 sequence (P43235 115-329): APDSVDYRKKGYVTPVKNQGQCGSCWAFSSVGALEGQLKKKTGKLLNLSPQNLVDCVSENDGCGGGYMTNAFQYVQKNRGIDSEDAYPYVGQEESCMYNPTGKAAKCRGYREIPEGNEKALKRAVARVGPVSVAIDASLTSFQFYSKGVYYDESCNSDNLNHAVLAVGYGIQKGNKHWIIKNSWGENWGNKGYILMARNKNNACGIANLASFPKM

Cathepsin S = Cathepsin S (Homo sapiens, UniProt P25774); experiment: Cathepsin S inhibition, fluorogenic peptide substrate kinetic assay;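 further: cleavage rate of a coumarin-labelled peptide substrate (50 µM) read as fluorescence increase at Ex 380 nm and Em 450 nm, relative to inhibitor-free control reactions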
Cathepsin L = Cathepsin L (Homo sapiens, UniProt P07711); experiment: Cathepsin L inhibition, fluorogenic peptide substrate kinetic assay (selectivity); details: ratio of cathepsin L inhibition constant to cathepsin S inhibition constant
Cathepsin B = Cathepsin B (Homo sapiens, UniProt P07858); experiment: Cathepsin B inhibition, fluorogenic peptide substrate kinetic assay (selectivity); details: ratio of cathepsin B inhibition constant to cathepsin S inhibition constant;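 further: value is the cathepsin B inhibition constant divided by the cathepsin S one, each from kinetic fluorescence readings (ex 380 nm, em 450 nm) of a 10 µM coumarin peptide substrate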
[1] = Cathepsin S inhibition constant, pH5.5, 20 minutes preincubation at room temperature, read-out: Ki Cat. S

Cathepsin S, sequence (P25774 115-331, species assumed): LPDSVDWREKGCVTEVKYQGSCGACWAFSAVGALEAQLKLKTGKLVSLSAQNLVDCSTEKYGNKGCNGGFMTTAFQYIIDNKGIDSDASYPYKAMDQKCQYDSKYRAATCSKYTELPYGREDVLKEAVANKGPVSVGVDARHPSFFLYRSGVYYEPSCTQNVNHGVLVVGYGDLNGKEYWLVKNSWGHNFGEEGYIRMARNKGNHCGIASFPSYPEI
Cathepsin L, sequence (P07711 114-333, species assumed): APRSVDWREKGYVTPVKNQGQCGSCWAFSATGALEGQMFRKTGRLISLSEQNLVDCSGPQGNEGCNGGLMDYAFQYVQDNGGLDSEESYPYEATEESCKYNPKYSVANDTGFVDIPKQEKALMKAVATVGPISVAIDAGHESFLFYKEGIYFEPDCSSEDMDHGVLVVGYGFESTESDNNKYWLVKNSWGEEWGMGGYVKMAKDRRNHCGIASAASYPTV

| Selectivity for Cat. S over Cat. K (Cathepsin K) | Ki (Cathepsin S; [1]) [nM] | Selectivity for Cat. S over Cat. L (Cathepsin L) | Selectivity for Cat. S over Cat. B (Cathepsin B) | Ki (Cathepsin S) [nM] | Compound |
| --- | --- | --- | --- | --- | --- |
| + (+, >10) | 1000 to 10000 | + (+, >10) | + (+, >10) | – | CC(C)[C@@H](CNc1cccc(S(C)(=O)=O)c1)NC(=O)[C@@H](CC(=O)N1CCOCC1)c1ccc(F)cc1 [Example 67, 2-(S)-(4-Fluoro-phenyl)-N-{1-(S)-[(3-methanesulfonyl-phenylamino)-methyl]-2-methyl-propyl}-4-morpholin-4-yl-4-oxo-butyramide] |
| ++ (++, >100) | 100 to 1000 | ++ (++, >100) | ++ (++, >100) | – | COc1ccc(NCCNC(=O)[C@@H](CC(=O)N2CCOCC2)CC2CCCCC2)cc1 [Example 19, (R)-2-Cyclohexylmethyl-N-[2-(4-methoxy-phenylamino)-ethyl]-4-morpholin-4-yl-4-oxo-butyramide] |
| + (+, >10) | 1000 to 10000 | + (+, >10) | + (+, >10) | – | CC(=O)NS(=O)(=O)c1ccc(NC[C@H](C)NC(=O)O[C@@H](CC2CCCCC2)C(=O)N2CCOCC2)cc1 [Example 89, [2-(4-Acetylsulfamoyl-phenylamino)-1-(S)-methyl-ethyl]-carbamic acid 1-(S)-cyclohexylmethyl-2-morpholin-4-yl-2-oxo-ethyl ester] |
| ++ (++, >100) | 100 to 1000 | ++ (++, >100) | ++ (++, >100) | – | COc1ccc([C@H](CC(=O)N2CCOCC2)C(=O)N[C@@H](C)CNc2ccc(OC(F)(F)F)cc2)cc1 [Example 63, 2-(S)-(4-Methoxy-phenyl)-N-[1-(S)-methyl-2-(4-trifluoromethoxy-phenylamino)-ethyl]-4-morpholin-4-yl-4-oxo-butyramide] |
| ++ (++, >100) | – | ++ (++, >100) | ++ (++, >100) | 100 to 1000 | C[C@@H](CNc1ccc(OC(F)(F)F)cc1)NC(=O)[C@H](CCC(C)(C)C)CC(=O)N1CCOCC1 [Example 25, 5,5-Dimethyl-2-(R)-(2-morpholin-4-yl-2-oxo-ethyl)-hexanoic acid [1-(S)-methyl-2-(4-trifluoromethoxy-phenylamino)-ethyl]-amide] |
| + (+, >10) | 100 to 1000 | + (+, >10) | ++ (++, >100) | – | Cc1cc(NC[C@H](C)NC(=O)[C@H](CC2CCCCC2)NC(=O)N2CCOCC2)no1 [Example 77, Morpholine-4-carboxylic acid {2-cyclohexyl-1-(S)-[1-(S)-methyl-2-(5-methyl-isoxazol-3-ylamino)-ethylcarbamoyl]-ethyl}-amide] |
| ++ (++, >100) | < 100 | + (+, >10) | +++ (+++, >1000) | – | C[C@@H](CNc1ccc(OC(F)(F)F)cc1)NC(=O)[C@@H](CC(=O)N1CCSCC1)CC1CCCCC1 [Example 51, 2-(R)-Cyclohexylmethyl-N-[1-(S)-methyl-2-(4-trifluoromethoxy-phenylamino)-ethyl]-4-oxo-4-thiomorpholin-4-yl-butyramide] |
| + (+, >10) | < 100 | + (+, >10) | ++ (++, >100) | – | COc1ccc(NC[C@H](C)NC(=O)[C@H](CC2CCCC2)NC(=O)N2CCOCC2)cc1 [Example 73, Morpholine-4-carboxylic acid {2-cyclopentyl-1-(S)-[2-(4-methoxy-phenylamino)-1-(S)-methyl-ethylcarbamoyl]-ethyl}-amide] |
| + (+, >10) | – | + (+, >10) | +++ (+++, >1000) | < 100 | CC(C)[C@@H](CNc1ccc(OC(F)(F)F)cc1)NC(=O)[C@@H](CC(=O)N1CCOCC1)c1ccccc1 [Example 34, N-{2-Methyl-1-(S)-[(4-trifluoromethoxy-phenylamino)-methyl]-propyl}-4-morpholin-4-yl-4-oxo-2-(S)-phenyl-butyramide] |
| ++ (++, >100) | – | ++ (++, >100) | ++ (++, >100) | 100 to 1000 | O=C(N[C@H](CNc1ccc(OC(F)(F)F)cc1)C1CC1)[C@@H](CC(=O)N1CCOCC1)c1ccc(C(F)(F)F)cc1 [Example 70, N-[1-(S)-Cyclopropyl-2-(4-trifluoromethoxy-phenylamino)-ethyl]-4-morpholin-4-yl-4-oxo-2-(S)-(4-trifluoromethyl-phenyl)-butyramide] |
| + (+, >10) | 1000 to 10000 | + (+, >10) | + (+, >10) | – | CCC1(O)CCCC(C[C@H](CC(=O)N2CCOCC2)C(=O)N[C@@H](C)CNc2ccc(OC(F)(F)F)cc2)C1 (stereo partly drawn) [Example 59, 2-(R)-(3-Ethyl-3-hydroxy-cyclohexylmethyl)-N-[1-(S)-methyl-2-(4-trifluoromethoxy-phenylamino)-ethyl]-4-morpholin-4-yl-4-oxo-butyramide] |
| +++ (+++, >1000) | – | ++ (++, >100) | +++ (+++, >1000) | < 100 | CC(C)[C@@H](CNc1ccc(OC(F)(F)F)cc1)NC(=O)[C@@H](CC(=O)N1CCOCC1)c1ccc(Cl)cc1 [Example 42, 2-(S)-(4-Chloro-phenyl)-N-{2-methyl-1-(S)-[(4-trifluoromethoxy-phenylamino)-methyl]-propyl}-4-morpholin-4-yl-4-oxo-butyramide] |
| + (+, >10) | < 100 | ++ (++, >100) | +++ (+++, >1000) | – | CCC[C@@H](CNc1ccc(OC(F)(F)F)cc1)NC(=O)[C@@H](CC(=O)N1CCOCC1)c1ccccc1 [Example 39, 4-Morpholin-4-yl-4-oxo-2-(S)-phenyl-N-{1-(S)-[(4-trifluoromethoxy-phenylamino)-methyl]-butyl}-butyramide] |
| + (+, >10) | – | + (+, >10) | + (+, >10) | 1000 to 10000 | O=C(C[C@@H](CC1CCCCC1)C(=O)N1CCOCC1)NCCNc1ccc(F)cc1 [Example 9, 3-(R)-Cyclohexylmethyl-N-[2-(4-fluoro-phenylamino)-ethyl]-4-morpholin-4-yl-4-oxo-butyramide] |
| + (+, >10) | 100 to 1000 | ++ (++, >100) | ++ (++, >100) | – | O=C(N[C@H](CNc1ccc(OC(F)(F)F)cc1)c1ccccc1)[C@@H](CC(=O)N1CCOCC1)c1ccc(Cl)cc1 [Example 48, 2-(S)-(4-Chloro-phenyl)-4-morpholin-4-yl-4-oxo-N-[1-(S)-phenyl-2-(4-trifluoromethoxy-phenylamino)-ethyl]-butyramide] |
| ++ (++, >100) | 100 to 1000 | ++ (++, >100) | ++ (++, >100) | – | C[C@@H](CNc1ccc(OC(F)(F)F)cc1)NC(=O)[C@@H](CC(=O)N1CCOCC1)CC1CCC2(CC1)CC2 [Example 65, N-[1-(S)-Methyl-2-(4-trifluoromethoxy-phenylamino)-ethyl]-4-morpholin-4-yl-4-oxo-2-(R)-spiro[2.5]oct-6-ylmethyl-butyramide] |
| ++ (++, >100) | – | ++ (++, >100) | ++ (++, >100) | 100 to 1000 | Cc1ccc([C@H](CC(=O)N2CCOCC2)C(=O)N[C@H](CNc2ccc(OC(F)(F)F)cc2)C(C)C)cc1 [Example 57, N-{2-Methyl-1-(S)-[(4-trifluoromethoxy-phenylamino)-methyl]-propyl}-4-morpholin-4-yl-4-oxo-2-(S)-p-tolyl-butyramide] |
| ++ (++, >100) | < 100 | + (+, >10) | ++ (++, >100) | – | O=C(NCCNc1ccc(F)cc1)[C@H](CC1CCCCC1)NC(=O)N1CCOCC1 [Example 3, Morpholine-4-carboxylic acid {2-cyclohexyl-1-(S)-[2-(4-fluoro-phenylamino)-ethylcarbamoyl]-ethyl}-amide] |
| + (+, >10) | 1000 to 10000 | + (+, >10) | + (+, >10) | – | Cc1cc(NCCNC(=O)[C@H](CCC(C)(C)C)CC(=O)N2CCOCC2)no1 [Example 49, (R)-5,5-Dimethyl-2-(2-morpholin-4-yl-2-oxo-ethyl)-hexanoic acid [2-(5-methyl-isoxazol-3-ylamino)-ethyl]-amide] |
| ++ (++, >100) | – | ++ (++, >100) | +++ (+++, >1000) | < 100 | O=C(N[C@H](CNc1ccc(OC(F)(F)F)cc1)c1ccccc1)[C@@H](CC(=O)N1CCOCC1)CC1CCCCC1 [Example 45, 2-(R)-Cyclohexylmethyl-4-morpholin-4-yl-4-oxo-N-[1-(S)-phenyl-2-(4-trifluoromethoxy-phenylamino)-ethyl]-butyramide] |
